Laboratory results reported in PubChem BioAssay (NCI).
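Values below derive from 48-hour exposures of cells grown in 96-well plates, with endpoints linearly interpolated between the two concentrations bracketing the appropriate inhibition level. Definition used: TGI = concentration required for complete inhibition of growth.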

What was measured:
Assay in all cases: inhibition of tumour cell growth, NCI panel, 48 h
TK-10 renal = tested on: TK-10 renal
HCT-15 colon = tested on: HCT-15 colon
CAKI-1 renal = tested on: CAKI-1 renal
OVCAR-8 ovarian = tested on: OVCAR-8 ovarian
XF 498 CNS = tested on: XF 498 CNS
LXFL 529 NSCLC = tested on: LXFL 529 NSCLC
M14 melanoma = tested on: M14 melanoma
HOP-18 NSCLC = tested on: HOP-18 NSCLC
IGROV1 ovarian = tested on: IGROV1 ovarian
KM20L2 colon = tested on: KM20L2 colon
OVCAR-3 ovarian = tested on: OVCAR-3 ovarian
BT-549 breast = tested on: BT-549 breast
MDA-N = tested on: MDA-N

Row | Compound | TGI (TK-10 renal) [µM] | TGI (HCT-15 colon) [µM] | TGI (CAKI-1 renal) [µM] | TGI (OVCAR-8 ovarian) [µM] | TGI (XF 498 CNS) [µM] | TGI (LXFL 529 NSCLC) [µM] | TGI (M14 melanoma) [µM] | TGI (HOP-18 NSCLC) [µM] | TGI (IGROV1 ovarian) [µM] | TGI (KM20L2 colon) [µM] | TGI (OVCAR-3 ovarian) [µM] | TGI (BT-549 breast) [µM] | TGI (MDA-N) [µM]
1 | CC(C)(C)C1CCC2(CC1)c1[nH]c3ccccc3c1C1(CCC(C(C)(C)C)CC1)c1[nH]c3ccccc3c12 (stereo unspecified) | > 100 | > 100 | > 100 | > 100 | > 100 | > 100 | > 100 | > 100 | > 100 | > 100 |  |  | 
2 | O=[N+]([O-])c1ccc(-c2ccc(-c3csc(Nc4ccccn4)n3)o2)cc1 | 56.1 | > 100 | > 100 | > 100 | 49.9 | 76.8 | > 100 |  | > 100 | > 100 | > 100 |  | 
3 | O=C(N/N=C/c1cc(Br)cc(Br)c1[O-])c1ccccc1O.O=C(N/N=C/c1cc(Br)cc(Br)c1[O-])c1ccccc1O.[Fe+2] | 28.5 | 13.8 | 34.5 | 36.1 |  |  | 14.5 |  | 41.4 | 17.4 | 25.8 |  | 
4 | COc1c(Br)cc(CC(N)=O)c(O)c1Br | > 100 |  | > 100 | > 100 | > 100 |  |  | > 100 | > 100 | > 100 | > 100 |  | 
5 | C=CCOCCCCC(C(C)=O)C(=O)OC (stereo unspecified) | > 100 | > 100 | > 100 | > 100 | > 100 | > 100 | > 100 | > 100 | > 100 | > 100 | > 100 |  | 
6 | COC(=O)C1CC2(c3ccccc3)C(=O)c3ccccc3N2O1 (stereo unspecified) | > 100 | > 100 | > 100 | > 100 |  | > 100 | > 100 | > 100 | > 100 | > 100 | > 100 |  | 
7 | NC(N)=NS(=O)(=O)c1ccc(NC(=O)c2ccc3nc4ccccc4c(Nc4ccc(S(=O)(=O)N=C(N)N)cc4)c3c2)cc1 | > 100 | > 100 | > 100 | > 100 |  |  | > 100 |  | > 100 |  | > 100 | > 100 | > 100
8 | C=c1c(OC)c(OC)c(O)c2c1=c1cc([N+](=O)[O-])cc(OC)c1=N2 | > 100 | > 100 | > 100 | > 100 |  |  | > 100 |  | > 100 |  | > 100 | > 100 | > 100
9 | Brc1ccc2c(-c3csc(-c4c[nH]c5ccc(Br)cc45)n3)c[nH]c2c1 | 15.2 | 14.5 | 9.81 | 24.1 |  |  | 13.3 |  | 16.4 |  | 23.2 | 27.7 | 16.6
10 | CC1CC(=O)Nc2nc3ccccc3n21 (stereo unspecified) | > 100 | > 100 | > 100 | > 100 |  |  | > 100 |  | > 100 |  | > 100 | > 100 | > 100
11 | NC(N)=Nc1ncccc1[N+](=O)[O-] |  | > 100 | > 100 | > 100 | > 100 |  |  | > 100 | > 100 | 70.2 | 66.5 |  | 
12 | O=c1c2ccccc2nc(Nc2cccc(Cl)c2)n1/N=C/C=C/c1ccccc1 | > 100 | > 100 | > 100 | > 100 |  |  | > 100 |  | > 100 |  | > 100 | > 100 | > 100
13 | Cc1nc(C)c(Cc2ccccc2)o1 | > 100 | > 100 | > 100 | > 100 |  |  | > 100 |  | > 100 |  | > 100 | > 100 | > 100
14 | COC1(OC)CCCCC2c3cccc(OC(C)=O)c3C21OC(C)=O (stereo unspecified) | > 100 | > 100 |  | > 100 | > 100 | > 100 | > 100 | > 100 | > 100 |  | > 100 |  | 
15 | CNC(=O)N(CCC#N)[C@H]1CCCC[C@@H]1N(C(=O)NC)c1ccccc1 | > 100 | > 100 | > 100 | > 100 |  |  | > 100 |  | > 100 |  | > 100 | > 100 | > 100
16 | CC(C)(C)c1cc(/C=C(\C#N)C(=O)NCCO)cc(C(C)(C)C)c1O | 60.9 | 58.6 | 77.6 | > 100 |  |  | 31.8 |  | > 100 |  | 33.5 | 71.1 | 48.7

Row | Compound | TGI (TK-10 renal) [µM] | TGI (HCT-15 colon) [µM] | TGI (CAKI-1 renal) [µM] | TGI (OVCAR-8 ovarian) [µM] | TGI (XF 498 CNS) [µM] | TGI (LXFL 529 NSCLC) [µM] | TGI (M14 melanoma) [µM] | TGI (HOP-18 NSCLC) [µM] | TGI (IGROV1 ovarian) [µM] | TGI (KM20L2 colon) [µM] | TGI (OVCAR-3 ovarian) [µM] | TGI (BT-549 breast) [µM] | TGI (MDA-N) [µM]
17 | FC(F)(F)c1ccc2nc3n(c2c1)C(c1c(Cl)cccc1Cl)SC3 (stereo unspecified) | 35.4 | 29.6 | 28 | 46.8 |  |  | 30.7 |  | 24.1 |  | 29.4 | 50.3 | 24.3
18 | Cc1nn(-c2cc(Cl)ccc2[N+](=O)[O-])c(C)c1Cl | > 100 | > 100 | > 100 | > 100 |  |  | > 100 |  | > 100 |  | > 100 | > 100 | > 100
19 | COc1cc(I)c2c3c1OC1C34CCN(C)C(C2)C4=CC(I)C1(OC)OC (stereo unspecified) | 51.1 | 63.4 | 93.8 | 53 |  |  | > 100 |  | 54.3 |  | 59 | 48.4 | 48
20 | CCOC(=O)C(NC(=O)CC(C)C)(N1CCN(c2cc3c(cc2F)c(=O)c(C(=O)O)cn3C2CC2)CC1)C(F)(F)F (stereo unspecified) | 72.9 | 22.3 | 74.5 | > 100 |  |  | 47.5 |  | 37.6 |  | 66.7 | 39.1 | 52.3
21 | Nc1ccc(S(=O)(=O)Nc2nc3ccccc3nc2N2CCCCC2)cc1 | > 100 | > 100 | > 100 | > 100 |  |  | > 100 |  | > 100 |  | > 100 | > 100 | > 100
22 | Clc1ccc(OCc2nnc(CCCCCCCCc3nnc(COc4ccc(Cl)cc4)n3Nc3ccccc3)n2Nc2ccccc2)cc1 | > 100 | > 100 | 27.2 | > 100 |  |  | > 38.3 |  | > 100 |  | 39.9 | 97.5 | 37.1
23 | O=C1CSC(c2cccs2)N1c1nc2cc3sc(N4C(=O)CSC4c4cccs4)nc3cc2s1 (stereo unspecified) | > 50 | > 50 | > 50 | > 50 |  |  | > 50 |  | > 50 |  | > 50 | > 50 | > 50
24 | O=C(O)C(CO)NC(=O)n1c2ccccc2c2ccccc21 (stereo unspecified) | > 100 | > 100 | > 100 | > 100 | > 100 | > 100 |  | > 100 | > 100 |  | > 100 |  | 
25 | O=c1oc2cc(O)ccc2c(O)c1C(c1ccc(C(c2c(O)c3ccc(O)cc3oc2=O)c2c(O)c3ccc(O)cc3oc2=O)cc1)c1c(O)c2ccc(O)cc2oc1=O | > 100 | > 100 | > 100 | > 100 |  |  | > 100 |  | > 100 |  | > 100 | > 100 | > 100
26 | O=C(CC1=NCCN1)c1ccccc1 |  | > 750 | > 750 | > 750 | > 750 |  |  | > 750 | > 750 | > 750 | > 750 |  | 
27 | CN(C)CCn1c(=O)c2ccc(NCCCN(C)CCCNc3ccc4c(=O)n(CCN(C)C)c(=O)n5c6ccc([N+](=O)[O-])cc6c(=O)c3c45)c3c(=O)c4cc([N+](=O)[O-])ccc4n(c1=O)c23 | 1.52 | 0.542 | 1.16 | 0.431 |  |  | 0.753 |  | 0.174 |  | 1.31 | 0.176 | 0.22
28 | Brc1cccc(N=NN2CCCC2)c1 | > 100 | > 100 | > 100 | > 100 |  |  | > 100 |  | > 100 |  | > 100 | > 100 | > 100
29 | C=C1C(=O)O[C@@]23C1CC[C@@H](C)C2CC[C@@]1(C)OC31 (stereo partly specified) | 16.8 | 30.3 | 18.4 | 56.5 |  |  | 12.9 |  | 32.3 |  | 13.4 | 23.7 | 23.1
30 | O=C(O)C(CS)N=c1c2ccccc2n(O)c2ccccc12 (stereo unspecified) | > 100 | > 100 | > 100 | > 100 |  | > 100 | > 100 | > 100 | > 100 | > 100 | > 100 |  | 
31 | Cc1cc2ncc3c(=O)n(NS(=O)(=O)c4ccc(N)cc4)ccc3n2n1 | > 100 | > 100 | > 100 | > 100 |  |  | > 100 |  | > 100 |  | > 100 | > 100 | > 100
